From ChEMBL document CHEMBL1125004, “Chemistry and pharmacology of the non-benzodiazepine anxiolytic enciprazine and related compounds” (1990)
Activity calls are given as the source filed them. The calls are words filed in the database; no cut-off is given here.

Tests used:
Rattus norvegicus [1] = assay: Effect on restlessness after oral administration of 50 mg/kg in rat was determined; '-' No effect; format: functional, organism-based; parameters: dose 50 mg/kg
Rattus norvegicus [2] = assay: Effect on jumping after oral administration of 100 mg/kg in rat was determined; '-' No effect; format: functional, organism-based; parameters: dose 100 mg/kg
Rattus norvegicus [3] = assay: Effect on salivation after oral administration of 100 mg/kg in rat was determined; '-' No effect; format: functional, organism-based; parameters: dose 100 mg/kg
Rattus norvegicus [4] = assay: Effect on salivation after oral administration of 50 mg/kg in rat was determined; '-' No effect; format: functional, organism-based; parameters: dose 50 mg/kg
Rattus norvegicus [5] = assay: Effect on piloerection after oral administration of 50 mg/kg in rat was determined; '-' No effect; format: functional, organism-based; parameters: dose 50 mg/kg
Rattus norvegicus [6] = assay: Effect on jumping after oral administration of 50 mg/kg in rat was determined; '-' No effect; format: functional, organism-based; parameters: dose 50 mg/kg
[7] = Ratio of ED50 (ethanol) to that of ED50 (fighting); format: functional
Rattus norvegicus [8] = assay: Effect on tremor after oral administration of 100 mg/kg in rat was determined; '-' No effect; format: functional, organism-based; parameters: dose 100 mg/kg
Rattus norvegicus [9] = assay: Effect on diarrheal after oral administration of 100 mg/kg in rat was determined; '-' No effect; format: functional, organism-based; parameters: dose 100 mg/kg
Rattus norvegicus [10] = assay: Effect on tremor after oral administration of 50 mg/kg in rat was determined; '-' No effect; format: functional, organism-based; parameters: dose 50 mg/kg
Rattus norvegicus [11] = assay: Effect on restlessness after oral administration of 100 mg/kg in rat was determined; '-' No effect; format: functional, organism-based; parameters: dose 100 mg/kg
[12] = Ratio of ED50 (rotarod) to that of ED50 (fighting); format: functional
[13] = Ratio of ED50 (hexobarbital) to that of ED50 (fighting); format: functional
Rattus norvegicus [14] = assay: Effect on diarrheal after oral administration of 50 mg/kg in rat was determined; '-' No effect; format: functional, organism-based; parameters: dose 50 mg/kg
Rattus norvegicus [15] = assay: Effect on piloerection after oral administration of 100 mg/kg in rat was determined; '-' No effect; format: functional, organism-based; parameters: dose 100 mg/kg
Mus musculus [16] = organism: Mus musculus; assay: Ataxic activity in mice by rotarod test; Range (64.3-92.1); format: functional
Mus musculus [17] = organism: Mus musculus; assay: Effect on hexobarbital induced sleep was determined in hexobarbital potentiation test; Range; format: functional
Mus musculus [18] = assay: Antiaggressive anxiolytic activity in the electroshock-induced fighting test in mice (po); Range (10.32-18.72); format: functional
Mus musculus [19] = organism: Mus musculus; assay: Effect on alcohol induced sleep was determined in ethanol potentiation test; Range; format: functional
Mus musculus [20] = organism: Mus musculus; assay: Effect on hexobarbital induced sleep was determined in hexobarbital potentiation test; Range (9.6-17.1); format: functional
Mus musculus [21] = assay: Antiaggressive anxiolytic activity in the electroshock-induced fighting test in mice (po); Range (1.03-4.7;); format: functional
Mus musculus [22] = organism: Mus musculus; assay: Ataxic activity in mice by rotarod test; Range (2.2-6.4); format: functional
Monkey [23] = assay: Tested for ability to maintain self-administration after administration of 0.3 mg/kg in monkey 3017 (0-1); format: functional, Cercopithecidae
Monkey [24] = assay: Tested for ability to maintain self-administration after administration of 0.03 mg/kg in monkey 9079 Range (2-24); format: functional, Cercopithecidae
Monkey [25] = assay: Tested for ability to maintain self-administration after administration of 0.3 mg/kg in monkey 9083 (1-4); format: functional, Cercopithecidae
Monkey [26] = assay: Tested for ability to maintain self-administration after administration of 0.003 mg/kg in monkey 3017 Range (1-2); format: functional, Cercopithecidae
Monkey [27] = assay: Tested for ability to maintain self-administration after administration of 0.003 mg/kg in monkey 9083 Range (13-21); format: functional, Cercopithecidae
Monkey [28] = assay: Tested for ability to maintain self-administration after administration of 0.003 mg/kg in monkey 3038 Range (1-7); format: functional, Cercopithecidae
Monkey [29] = assay: Tested for ability to maintain self-administration after administration of 0.3 mg/kg in monkey 9079 (0-2); format: functional, Cercopithecidae
Monkey [30] = assay: Tested for ability to maintain self-administration after administration of 0.001 mg/kg in monkey 3038 Range (2-5); format: functional, Cercopithecidae
Monkey [31] = assay: Tested for ability to maintain self-administration after administration of 0.03 mg/kg in monkey 9083 Range (7-11); format: functional, Cercopithecidae
Monkey [32] = assay: Tested for ability to maintain self-administration after administration of 0.03 mg/kg in monkey 3038 Range (1-10); format: functional, Cercopithecidae
Monkey [33] = assay: Tested for ability to maintain self-administration after administration of 0.03 mg/kg in monkey 2037 Range (7-9); format: functional, Cercopithecidae
Monkey [34] = assay: Tested for ability to maintain self-administration after administration of 0.003 mg/kg in monkey 9079 Range (1-6); format: functional, Cercopithecidae
Monkey [35] = assay: Tested for ability to maintain self-administration after administration of 0.03 mg/kg in monkey 2036 Range (2-3); format: functional, Cercopithecidae
Monkey [36] = assay: Tested for ability to maintain self-administration after administration of 0.3 mg/kg in monkey 2036 (1-5); format: functional, Cercopithecidae
Monkey [37] = assay: Tested for ability to maintain self-administration after administration of 0.03 mg/kg in monkey 3017 Range (1-7); format: functional, Cercopithecidae
Monkey [38] = assay: Tested for ability to maintain self-administration after administration of 0.01 mg/kg in monkey 9079 Range (1-3); format: functional, Cercopithecidae
Monkey [39] = assay: Tested for ability to maintain self-administration after administration of 0.3 mg/kg in monkey 2037 (0-4); format: functional, Cercopithecidae
Monkey [40] = assay: Tested for ability to maintain self-administration after administration of 0.3 mg/kg in monkey 3038 (1-2); format: functional, Cercopithecidae
Monkey [41] = assay: Tested for ability to maintain self-administration after administration of 0.003 mg/kg in monkey 2036 Range (5-9); format: functional, Cercopithecidae
Monkey [42] = assay: Tested for ability to maintain self-administration after administration of 0.003 mg/kg in monkey 2037 Range (2-6); format: functional, Cercopithecidae
Monkey [43] = assay: Tested for ability to maintain self-administration after administration of 1 mg/kg in monkey 9079 (0-3); format: functional, Cercopithecidae
Monkey [44] = assay: Tested for ability to maintain self-administration after administration of 0.01 mg/kg in monkey 3017 Range (14-22); format: functional, Cercopithecidae
Monkey [45] = assay: Tested for ability to maintain self-administration after administration of 0.3 mg/kg in monkey 2036 Range (10-12); format: functional, Cercopithecidae
Monkey [46] = assay: Tested for ability to maintain self-administration after administration of 0.03 mg/kg in monkey 2036 Range (30-36); format: functional, Cercopithecidae
Monkey [47] = assay: Tested for ability to maintain self-administration after administration of 0.03 mg/kg in monkey 3038 Range (0-14); format: functional, Cercopithecidae
Monkey [48] = assay: Tested for ability to maintain self-administration after administration of 0.56 mg/kg in monkey 9079 Range (15-18); format: functional, Cercopithecidae
Monkey [49] = assay: Tested for ability to maintain self-administration after administration of 0.1 mg/kg in monkey 9079 Range (5-20); format: functional, Cercopithecidae
Monkey [50] = assay: Tested for ability to maintain self-administration after administration of 0.3 mg/kg in monkey 3038 Range (12-32); format: functional, Cercopithecidae
Monkey [51] = assay: Tested for ability to maintain self-administration after administration of 0.1 mg/kg in monkey 2037; format: functional, Cercopithecidae
Monkey [52] = assay: Tested for ability to maintain self-administration after administration of 0.03 mg/kg in monkey 3017 Range (26-29); format: functional, Cercopithecidae
Monkey [53] = assay: Tested for ability to maintain self-administration after administration of 0.3 mg/kg in monkey 3017 Range (28-50); format: functional, Cercopithecidae
Monkey [54] = assay: Tested for ability to maintain self-administration after administration of 0.3 mg/kg in monkey 9083 Range (14-23); format: functional, Cercopithecidae
Monkey [55] = assay: Tested for ability to maintain self-administration after administration of 0.1 mg/kg in monkey 3038 Range (42-58); format: functional, Cercopithecidae
Monkey [56] = assay: Tested for ability to maintain self-administration after administration of 0.1 mg/kg in monkey 2036 Range (37-43); format: functional, Cercopithecidae
Monkey [57] = assay: Tested for ability to maintain self-administration after administration of 0.03 mg/kg in monkey 2037 Range (63-73); format: functional, Cercopithecidae
Monkey [58] = assay: Tested for ability to maintain self-administration after administration of 0.1 mg/kg in monkey 3017 Range ([…]); format: functional, Cercopithecidae
Monkey [59] = assay: Tested for ability to maintain self-administration after administration of 0.1 mg/kg in monkey 9083 Range (20-32); format: functional, Cercopithecidae
Monkey [60] = assay: Tested for ability to maintain self-administration after administration of 0.01 mg/kg in monkey 2036 Range (25-28); format: functional, Cercopithecidae
Monkey [61] = assay: Tested for ability to maintain self-administration after administration of 0.01 mg/kg in monkey 2037 Range (33-51); format: functional, Cercopithecidae
Monkey [62] = assay: Tested for ability to maintain self-administration after administration of 0.3 mg/kg in monkey 9079 Range (32-53); format: functional, Cercopithecidae
Monkey [63] = assay: Tested for ability to maintain self-administration after administration of 0.03 mg/kg in monkey 9083 Range (19-47); format: functional, Cercopithecidae

COc1ccccc1N1CCN(CC(O)COc2cc(OC)c(OC)c(OC)c2)CC1 (stereo not drawn)
Effect (Rattus norvegicus [1]): inactive | Effect (Rattus norvegicus [2]): inactive | Effect (Rattus norvegicus [3]): inactive | Effect (Rattus norvegicus [4]): inactive | Effect (Rattus norvegicus [5]): inactive | Effect (Rattus norvegicus [6]): inactive | Therapeutic index [7]: 32.5 | Effect (Rattus norvegicus [8]): inactive | Effect (Rattus norvegicus [9]): inactive | Effect (Rattus norvegicus [10]): inactive | Effect (Rattus norvegicus [11]): inactive | Therapeutic index [12]: 86 | Therapeutic index [13]: 33 | Effect (Rattus norvegicus [14]): inactive | Effect (Rattus norvegicus [15]): inactive

O=C1CC2(CCCC2)CC(=O)N1CCCCN1CCN(c2ncccn2)CC1 [BUSPIRONE]
ED50 (Mus musculus [16]): 77 mg/kg | ED50 (Mus musculus [17]): 54.5 mg/kg | ED50 (Mus musculus [18]): 14.5 mg/kg | Therapeutic index [7]: 0.8 | ED50 (Mus musculus [19]): 62.8 mg/kg | Therapeutic index [12]: 5.3 | Therapeutic index [13]: 0.7

CN1C(=O)CC(=O)N(c2ccccc2)c2cc(Cl)ccc21 [CLOBAZAM]
ED50 (Mus musculus [20]): 13.2 mg/kg | ED50 (Mus musculus [21]): 2.35 mg/kg | ED50 (Mus musculus [22]): 4.1 mg/kg | Therapeutic index [12]: 1.8 | Therapeutic index [13]: 5.6

COc1ccccc1N1CCN(CC(O)COc2cc(OC)c(OC)c(OC)c2)CC1 (stereo not drawn) [ENCIPRAZINE]
Effect (Monkey [23]): 0.3 | Effect (Monkey [24]): 13.7 | Effect (Monkey [25]): 2.7 | Effect (Monkey [26]): 1.7 | Effect (Monkey [27]): 17.7 | Effect (Monkey [28]): 4 | Effect (Monkey [29]): 1 | Effect (Monkey [30]): 3.5 | Effect (Monkey [31]): 9 | Effect (Monkey [32]): 4.3 | Effect (Monkey [33]): 7.7 | Effect (Monkey [34]): 3 | Effect (Monkey [35]): 2.3 | Effect (Monkey [36]): 3 | Effect (Monkey [37]): 4.3 | Effect (Monkey [38]): 2 | Effect (Monkey [39]): 2 | Effect (Monkey [40]): 1.3 | Effect (Monkey [41]): 7 | Effect (Monkey [42]): 4.3 | Effect (Monkey [43]): 1.3

CCN(CC)CCN1C(=O)CN=C(c2ccccc2F)c2cc(Cl)ccc21 [FLURAZEPAM]
Effect (Monkey [44]): 17.7 | Effect (Monkey [45]): 11 | Effect (Monkey [46]): 33 | Effect (Monkey [47]): 8 | Effect (Monkey [48]): 16.7 | Effect (Monkey [49]): 12.5 | Effect (Monkey [50]): 22 | Effect (Monkey [51]): 33 | Effect (Monkey [52]): 27.5 | Effect (Monkey [53]): 40.3 | Effect (Monkey [54]): 18.3 | Effect (Monkey [55]): 50 | Effect (Monkey [56]): 40 | Effect (Monkey [57]): 68 | Effect (Monkey [58]): 54.7 | Effect (Monkey [59]): 26.3 | Effect (Monkey [60]): 26 | Effect (Monkey [61]): 40.7 | Effect (Monkey [62]): 44.7 | Effect (Monkey [63]): 29
